Test results reported in patent US7964399B2, “Cell line comprising vector encoding truncated FLK-1 receptor” (Max-Planck-Gesellschaft zur Forderung der Wissenschaften …, priority 1992, dated 2011).
“Also recorded” adds a separate entry of the source. Blank lines part the entries; values can stand above or below the molecule they belong to.

Key:
Flk-1 [1] = target: T1, Flk-1 (Mus musculus, UniProt P35918, P25T); assay: 125I-VEGF competition binding to COS-1 cells transiently expressing Flk-1; set-up: the full-length Flk-1 cDNA was cloned into the mammalian expression vector PCMV; expressed in transfected cells; host or cells: COS-1 (transient, CMV-promoter vector); conditions: for competition with binding of 125I-VEGF: Flk-1 transfected COS-1 cells
[2] = target: murine Flk-1 receptor (fetal liver kinase 1), full length, wild type, 180 kD (mouse) (UniProt P35918); assay: cell-based or functional assay
Flk-1 [3] = target: T1, Flk-1; assay: Cellular Flk-1 assay: VEGF-stimulated Flk-1 receptor autophosphorylation, antiphosphotyrosine Western blot; type: cell-based; set-up: expressed in transfected cells; host or cells: NIH 3T3 (3T3 Flk-1 cell line); conditions: test concentration 100 μM, FIG. 17, NIH3T3 cells expressing Flk-1
Experimental: FIG. 17. Inhibition of VEGF stipulatory activity of Flk-1. Test compounds and VEGF were co-incubated on cells expressing the Flk-1 receptor. The level of tyrosine phosphorylation was measured in a Western blot format using an antiphosphotyrosine antibody. […] (Compounds A7, A8, and A10 were toxic to these cells resulting in cell death.).
Organic compounds that modulate Flk-1 receptor mediated signal transduction can be assayed in a cellular Flk-1 assay wherein modulation of Flk-1 receptor autophosphorylation is measured using an antiphosphotyrosine antibody. In the example shown below, the results are analyzed using a Western blot of electrophoresed cell lysates. Levels of phosphorylation as be measured by other techniques known in the art.
NIH3T3 cells expressing high levels of Flk-1 were seeded in 12-well plates at 250,000 cells/well in DMEM+0.5% calf serum and incubated overnight at 37° C. plus or minus the test substance. […]
For the Western blot assay, forty microliters of saved supernatant per lane were loaded onto a 7.5% SDS-PAGE gel (10 lanes/gel, 1.5 mm thick) and run at 120 V until the dye reached the bottom of the gel. […] Protein bands were detected by soaking the membrane in ECL chemiluminescence system (Amersham Corp., prepared by mixing equal volumes of reagent 1 and 2) for 1 minute and then exposing the film for about 1-10 minutes.

Flk-1 [4] = target: T1, Flk-1; assay: [3H]thymidine incorporation (mitogenic response) in Flk-1-expressing NIH 3T3 cells; type: cell-based; set-up: the full-length Flk-1 cDNA was cloned into the mammalian expression vector PCMV; expressed in transfected cells; conditions: 3T3 Flk-1 cell line
Source text: The dominant-negative potential of Flk-1 TM was first examined by measuring its influence on the mitogenic response of Flk-1-expressing NIH 3T3 cells after superinfection with the Flk-1 TM virus.

Flk-1 [5] = target: T1, Flk-1; assay: VEGF-induced autophosphorylation of Flk-1 in COS cells; type: cell-based; set-up: expressed in transfected cells; dose or concentration left out as unconfirmed; conditions: COS1 cells transiently expressing Flk-1, stimulated with VEGF
[6] = target: T2, murine Flk-1 receptor (fetal liver kinase 1), full length, wild type, 180 kD (mouse, UniProt P35918 20-1345); assay: competition binding of unlabeled VEGF against 10 pM ^125I-VEGF on COS-1 cells expressing Flk-1, analysis by Munson and Rodbard
T2 construct: Full-length Flk-1 cDNA in pCMV, transiently expressed in COS-1 cells; also stably expressed in NIH 3T3 cells; also called Flk-1 RTK; wild type Flk-1
Experimental: FIGS. 9A and 9B. Flk-1 is a receptor for VEGF. […] The cells were lysed, Flk-1 receptor immunoprecipitated, and analyzed by polyacrylamide gel electrophoresis followed by autoradiography. Molecular size markers are indicated in kilodaltons. […] COS cells transiently expressing Flk-1 were removed from the plate and resuspended in binding medium (DMEM, 25 mM Hepes, 0.15% gelatin). […] The cells were washed twice with PBS/0.1% BSA and counted in a gamma counter.
Ligand binding experiments were performed as described previously (Schumacher, R. et al., 1991, J. Biol. Chem. 266: 19288-19295), COS-1 cells were grown in a 15-cm culture dish in DMEM for 48 h after transfection. Cells were then washed carefully with PBS and incubated with 5 ml of 25 mM EDTA in PBS for 10 min. Cells were then removed from the plate, washed once with binding buffer (DMEM, 25 mM HEPES, pH 7.5, 0.15% gelatin) and resuspended in 5 ml of binding buffer to determine the cell number. […] Data obtained were analyzed by the method of Munson, P. J. and Rodbard, D. (1980 Anal. Biochem. 107:220-235).

[7] = target: T3, Flk-1 TM, truncated transdominant-negative Flk-1 receptor mutant (amino acids 1 through 806), 130 kD (mouse, UniProt P35918 20-806); assay: ^125I-VEGF binding to 3T3 Flk-1/Flk-1 TM cells against the parental 3T3 Flk-1 cells
T3 construct: Lacks the 561 C-terminal amino acids of the intracellular kinase domain; keeps the transmembrane domain and 23 residues of the cytoplasmic domain; A BglII/HpaI linker with a stop codon (5' GTC ATG GAT CTT CGT TAA 3') may add or change a few C-terminal residues; Expressed in cells (COS, NIH 3T3); also called truncated Flk-1 receptor; pLXSN Flk-1 TM cl.1
T3 sequence (P35918 other isoform, or with tags, fused parts or gaps mutant): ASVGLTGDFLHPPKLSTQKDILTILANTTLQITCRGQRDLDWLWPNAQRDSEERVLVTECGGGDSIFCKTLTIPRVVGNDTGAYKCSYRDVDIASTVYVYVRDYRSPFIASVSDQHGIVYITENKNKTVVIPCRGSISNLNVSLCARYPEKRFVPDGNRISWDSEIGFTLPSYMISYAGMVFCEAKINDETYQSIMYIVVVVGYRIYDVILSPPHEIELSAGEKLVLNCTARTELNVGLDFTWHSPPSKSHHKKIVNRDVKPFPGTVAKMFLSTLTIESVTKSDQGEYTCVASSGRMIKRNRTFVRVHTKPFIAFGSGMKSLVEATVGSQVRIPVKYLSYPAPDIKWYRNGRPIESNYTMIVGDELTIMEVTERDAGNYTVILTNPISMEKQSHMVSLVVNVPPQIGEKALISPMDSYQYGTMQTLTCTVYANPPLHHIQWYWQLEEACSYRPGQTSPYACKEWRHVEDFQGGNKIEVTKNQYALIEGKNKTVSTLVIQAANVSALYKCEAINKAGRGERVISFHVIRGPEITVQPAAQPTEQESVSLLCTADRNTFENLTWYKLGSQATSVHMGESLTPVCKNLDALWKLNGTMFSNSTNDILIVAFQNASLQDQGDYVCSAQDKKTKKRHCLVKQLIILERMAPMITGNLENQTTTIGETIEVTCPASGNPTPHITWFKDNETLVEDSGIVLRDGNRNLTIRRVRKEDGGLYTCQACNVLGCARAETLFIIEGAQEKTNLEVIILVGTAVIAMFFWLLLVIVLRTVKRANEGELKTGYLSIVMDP

T1 sequence (P35918 with tags, fused parts or gaps P25T limits assumed): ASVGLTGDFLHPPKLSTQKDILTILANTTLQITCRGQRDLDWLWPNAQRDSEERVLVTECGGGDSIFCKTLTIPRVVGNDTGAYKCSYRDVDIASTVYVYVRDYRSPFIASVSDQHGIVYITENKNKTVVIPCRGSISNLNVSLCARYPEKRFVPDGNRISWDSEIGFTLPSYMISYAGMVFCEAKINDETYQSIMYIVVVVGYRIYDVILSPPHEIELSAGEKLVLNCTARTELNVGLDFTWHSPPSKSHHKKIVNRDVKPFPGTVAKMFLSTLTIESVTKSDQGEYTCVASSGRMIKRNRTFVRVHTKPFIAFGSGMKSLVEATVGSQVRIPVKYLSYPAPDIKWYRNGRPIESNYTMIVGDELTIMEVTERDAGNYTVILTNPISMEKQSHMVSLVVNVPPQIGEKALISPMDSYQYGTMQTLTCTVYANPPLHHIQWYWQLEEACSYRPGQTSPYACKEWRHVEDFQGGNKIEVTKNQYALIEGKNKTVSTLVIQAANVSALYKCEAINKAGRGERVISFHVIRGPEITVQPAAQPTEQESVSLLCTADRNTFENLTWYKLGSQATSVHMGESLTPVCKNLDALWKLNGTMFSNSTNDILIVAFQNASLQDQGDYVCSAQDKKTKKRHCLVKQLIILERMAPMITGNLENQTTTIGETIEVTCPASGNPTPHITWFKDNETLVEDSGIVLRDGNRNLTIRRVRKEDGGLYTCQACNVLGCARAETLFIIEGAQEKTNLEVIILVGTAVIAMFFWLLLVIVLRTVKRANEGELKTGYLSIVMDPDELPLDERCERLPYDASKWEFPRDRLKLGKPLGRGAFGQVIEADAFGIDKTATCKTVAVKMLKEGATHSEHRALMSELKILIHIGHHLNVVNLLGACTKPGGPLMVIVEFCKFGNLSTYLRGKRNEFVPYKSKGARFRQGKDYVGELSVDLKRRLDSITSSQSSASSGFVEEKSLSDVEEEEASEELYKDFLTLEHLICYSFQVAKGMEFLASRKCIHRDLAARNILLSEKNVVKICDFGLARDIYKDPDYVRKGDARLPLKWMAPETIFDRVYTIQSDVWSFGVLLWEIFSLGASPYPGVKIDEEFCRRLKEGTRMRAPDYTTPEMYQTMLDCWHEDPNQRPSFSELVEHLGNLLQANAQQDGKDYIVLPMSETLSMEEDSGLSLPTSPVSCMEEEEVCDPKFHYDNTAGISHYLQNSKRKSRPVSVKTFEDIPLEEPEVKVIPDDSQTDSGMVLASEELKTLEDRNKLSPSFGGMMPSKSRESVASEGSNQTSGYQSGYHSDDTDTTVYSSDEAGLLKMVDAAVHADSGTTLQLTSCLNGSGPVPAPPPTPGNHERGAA
Chain of murine Flk-1 receptor (fetal liver kinase 1), full length, wild type, 180 kD (mouse) (P35918 other isoform, or with tags, fused parts or gaps limits assumed): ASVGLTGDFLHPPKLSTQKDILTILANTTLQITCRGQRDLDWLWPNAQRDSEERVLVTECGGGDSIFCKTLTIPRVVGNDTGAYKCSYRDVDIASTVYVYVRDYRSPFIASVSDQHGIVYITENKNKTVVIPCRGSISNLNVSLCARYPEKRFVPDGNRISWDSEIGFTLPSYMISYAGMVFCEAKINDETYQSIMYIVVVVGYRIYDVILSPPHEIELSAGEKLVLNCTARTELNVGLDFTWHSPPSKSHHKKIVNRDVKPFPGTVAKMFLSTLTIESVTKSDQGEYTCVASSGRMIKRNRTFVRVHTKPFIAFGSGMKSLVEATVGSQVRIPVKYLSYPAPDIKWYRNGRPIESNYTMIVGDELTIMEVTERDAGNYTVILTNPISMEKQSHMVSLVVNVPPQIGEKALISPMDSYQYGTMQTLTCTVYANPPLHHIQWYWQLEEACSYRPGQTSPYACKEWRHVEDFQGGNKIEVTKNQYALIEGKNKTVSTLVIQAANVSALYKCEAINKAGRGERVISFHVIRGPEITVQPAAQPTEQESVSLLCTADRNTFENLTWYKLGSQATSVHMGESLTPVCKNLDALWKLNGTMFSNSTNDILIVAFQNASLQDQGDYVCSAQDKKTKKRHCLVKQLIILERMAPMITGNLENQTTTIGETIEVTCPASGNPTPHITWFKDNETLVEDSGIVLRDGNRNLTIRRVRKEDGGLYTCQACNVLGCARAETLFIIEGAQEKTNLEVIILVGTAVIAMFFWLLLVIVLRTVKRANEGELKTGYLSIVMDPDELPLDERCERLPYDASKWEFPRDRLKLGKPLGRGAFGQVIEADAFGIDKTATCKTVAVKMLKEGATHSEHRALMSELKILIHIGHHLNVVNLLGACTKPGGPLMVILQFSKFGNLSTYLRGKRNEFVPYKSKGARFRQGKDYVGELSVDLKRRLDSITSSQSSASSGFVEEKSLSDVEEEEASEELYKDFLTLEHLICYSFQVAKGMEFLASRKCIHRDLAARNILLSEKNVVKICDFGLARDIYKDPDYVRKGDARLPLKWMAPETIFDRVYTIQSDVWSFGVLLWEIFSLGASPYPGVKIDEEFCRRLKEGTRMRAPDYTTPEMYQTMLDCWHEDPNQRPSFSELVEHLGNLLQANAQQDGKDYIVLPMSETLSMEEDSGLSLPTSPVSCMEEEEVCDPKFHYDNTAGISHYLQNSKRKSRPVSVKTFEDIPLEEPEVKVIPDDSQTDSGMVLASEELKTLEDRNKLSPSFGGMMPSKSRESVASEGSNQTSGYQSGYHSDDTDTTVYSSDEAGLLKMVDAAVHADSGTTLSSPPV
T2 sequence (P35918 other isoform, or with tags, fused parts or gaps limits assumed): as above

Molecule: VEGF (preparation not specified) used for stimulation of cells (ligand)
[^3H] thymidine incorporation in the 3T3 Flk-1 cell line, EC50 [2]: 0.1 nM | [^3H] thymidine incorporation in the 3T3 Flk-1 cell line, concentration of maximal stimulation [2]: 500 pM

Molecule: c1ccc(-c2cnc3cc4ccccc4cc3n2)cc1 [Compound A14]
inhibition of VEGF-stimulated Flk-1 receptor phosphorylation (Flk-1 [3]): almost completely; also recorded: completely inhibited

Molecule: vascular endothelial growth factor [VEGF]
EC50 (Flk-1 [4]): ~0.1 nM | concentration giving maximal stimulation of [3H] thymidine incorporation (Flk-1 [4]): 500 pM | tyrosine phosphorylation of the 180 kD Flk-1 receptor (Flk-1 [5]): significant induction | Kd (Flk-1 [1]; Flk-1 expressing COS-1 cells, 125I-VEGF, 15° C., 90 min): ~0.1 nM | competition with binding of 125I-VEGF (Flk-1 [1]): competed

More lines, now with the values ahead:

competition with binding of 125I-VEGF (Flk-1 [1]): did not compete
Molecule: PDGF-BB: growth factor used as specificity control in 125I-VEGF competition binding [reference compound]

Kd [6]: ~0.1 nM
B1: unlabeled VEGF (164 amino acid form), partially purified from conditioned media of COS-1 cells transiently expressing VEGF (ligand, UniProt Q00731-2 27-190, looked up)
chain: APTTEGEQKSHEVIKFMDVYQRSYCRPIETLVDIFQEYPDEIEYIFKPSCVPLMRCAGCCNDEALECVPTSESNITMQIMRIKPHQSQHIGEMSFLQHSRCECRPKKDRTKPENHCEPCSERRKHLFVQDPQTCKCSCKNTDSRCKARQLELNERTCRCDKPRR
notes: Partially purified on heparin columns; also called unlabeled ligand

fold increase of cell surface receptors against the parental 3T3 Flk-1 line [7]: 6 fold
B2: ^125I-labeled recombinant human VEGF (ligand, UniProt P15692-4 27-191, looked up)
chain: APMAEGGGQNHHEVVKFMDVYQRSYCHPIETLVDIFQEYPDEIEYIFKPSCVPLMRCGGCCNDEGLECVPTEESNITMQIMRIKPHQGQHIGEMSFLQHNKCECRPKKDRARQENPCGPCSERRKHLFVQDPQTCKCSCKNTDSRCKARQLELNERTCRCDKPRR
modifications: radioiodinated (^125I) by the procedure of Hunter and Greenwood; positions not given
notes: also called iodinated VEGF
